Data published in PMC9274090, “Molecular Modeling of ABHD5 Structure and Ligand Recognition” (Frontiers in Molecular Biosciences, 2022).
pIC50: −log10 of the molar value. Read-outs that look alike come from different tables or passages of the source.

Biological target: T1, Alpha/beta hydrolase domain-containing 5 (ABHD5, CGI-58) (Mus musculus, UniProt Q9DBL9)
T1 construct: ABHD5 fused to C-terminal fragment of G. princeps luciferase
T1 sequence (Q9DBL9 1-351): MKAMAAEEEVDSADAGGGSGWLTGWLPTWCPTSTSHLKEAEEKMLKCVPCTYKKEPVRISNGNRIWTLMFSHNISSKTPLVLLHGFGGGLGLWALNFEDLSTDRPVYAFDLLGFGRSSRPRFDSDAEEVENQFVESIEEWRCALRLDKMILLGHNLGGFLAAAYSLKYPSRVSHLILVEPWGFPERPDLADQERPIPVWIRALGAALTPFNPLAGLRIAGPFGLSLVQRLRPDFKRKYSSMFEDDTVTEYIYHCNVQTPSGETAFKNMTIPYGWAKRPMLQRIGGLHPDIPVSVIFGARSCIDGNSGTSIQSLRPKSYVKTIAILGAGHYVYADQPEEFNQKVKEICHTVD
T1 sequence (Q8BVZ1 1-463 partner): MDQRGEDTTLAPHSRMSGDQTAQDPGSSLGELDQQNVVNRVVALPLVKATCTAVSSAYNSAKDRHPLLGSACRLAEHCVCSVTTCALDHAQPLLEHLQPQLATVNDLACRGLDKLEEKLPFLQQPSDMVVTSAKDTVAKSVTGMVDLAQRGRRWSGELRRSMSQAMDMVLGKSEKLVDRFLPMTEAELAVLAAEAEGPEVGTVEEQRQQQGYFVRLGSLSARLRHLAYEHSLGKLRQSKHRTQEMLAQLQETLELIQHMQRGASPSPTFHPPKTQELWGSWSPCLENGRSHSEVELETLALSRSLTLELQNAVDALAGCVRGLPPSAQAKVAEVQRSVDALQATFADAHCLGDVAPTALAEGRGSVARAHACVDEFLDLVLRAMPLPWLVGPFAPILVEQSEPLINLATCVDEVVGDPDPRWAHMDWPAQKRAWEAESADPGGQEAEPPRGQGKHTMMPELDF
Test: split luciferase complementation in cell lysates: ligand-induced dissociation of ABHD5-PLIN5
Format: biochemical

## O=C(Cc1cccc(F)c1)N1CCN(S(=O)(=O)c2ccc3c(c2)OCCO3)CC1 [SR3133, SR-03000003133]
read-out: IC50
  pIC50: 4.80

## Cc1ccc2c(CC(=O)N3CCN(S(=O)(=O)c4ccc5c(c4)OCCO5)CC3)coc2c1 [SR4559, SR-01000604559]
  pIC50: 5.46

## COc1ccc(CC(=O)N2CCN(S(=O)(=O)c3ccc4c(c3)OCCCO4)CC2)cc1 [SR3134, SR-03000003134]
read-out: IC50
  pIC50: 5.05
